According to PubChem BioAssay (NCI):
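96-well plates; 48 h exposure; 5 concentrations. Endpoints by linear interpolation between flanking doses. Not reached: highest tested concentration assigned. TGI is the concentration that stops growth completely.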

Columns and labels:
Test in all cases: NCI tumour cell line growth inhibition, 48 h
ACHN renal = tested on: ACHN renal
SF-295 CNS = tested on: SF-295 CNS
HT29 colon = tested on: HT29 colon
UACC-257 melanoma = tested on: UACC-257 melanoma
KM12 colon = tested on: KM12 colon
A498 renal = tested on: A498 renal
HCT-116 colon = tested on: HCT-116 colon
DMS 114 small cell lung = tested on: DMS 114 small cell lung
SNB-78 CNS = tested on: SNB-78 CNS
NCI-H226 lung = tested on: NCI-H226 lung
MOLT-4 leukemia = tested on: MOLT-4 leukemia
U251 CNS = tested on: U251 CNS
NCI-H460 lung = tested on: NCI-H460 lung
HL-60(TB) leukemia = tested on: HL-60(TB) leukemia
NCI-H23 lung = tested on: NCI-H23 lung
TK-10 renal = tested on: TK-10 renal
IGROV1 ovarian = tested on: IGROV1 ovarian
CCRF-CEM leukemia = tested on: CCRF-CEM leukemia
SK-OV-3 ovarian = tested on: SK-OV-3 ovarian
SK-MEL-28 melanoma = tested on: SK-MEL-28 melanoma
M14 melanoma = tested on: M14 melanoma
RXF 393 renal = tested on: RXF 393 renal
EKVX NSCLC = tested on: EKVX NSCLC
SR leukemia = tested on: SR leukemia
NCI-H522 lung = tested on: NCI-H522 lung
DMS 273 small cell lung = tested on: DMS 273 small cell lung
RXF-631 renal = tested on: RXF-631 renal
OVCAR-5 ovarian = tested on: OVCAR-5 ovarian
M19-MEL melanoma = tested on: M19-MEL melanoma
HOP-62 NSCLC = tested on: HOP-62 NSCLC
OVCAR-8 ovarian = tested on: OVCAR-8 ovarian
KM20L2 colon = tested on: KM20L2 colon
HOP-92 NSCLC = tested on: HOP-92 NSCLC
A549 NSCLC = tested on: A549 NSCLC
UACC-62 melanoma = tested on: UACC-62 melanoma
DLD-1 colon = tested on: DLD-1 colon
SNB-19 CNS = tested on: SNB-19 CNS
COLO 205 colon = tested on: COLO 205 colon
SW-620 colon = tested on: SW-620 colon
K-562 leukemia = tested on: K-562 leukemia
SF-268 CNS = tested on: SF-268 CNS
LOX IMVI melanoma = tested on: LOX IMVI melanoma
SK-MEL-5 melanoma = tested on: SK-MEL-5 melanoma
SN12C renal = tested on: SN12C renal
HOP-18 NSCLC = tested on: HOP-18 NSCLC
786-0 renal = tested on: 786-0 renal
HCC-2998 colon = tested on: HCC-2998 colon
SK-MEL-2 melanoma = tested on: SK-MEL-2 melanoma
UO-31 renal = tested on: UO-31 renal
MALME-3M melanoma = tested on: MALME-3M melanoma
XF 498 CNS = tested on: XF 498 CNS
RPMI-8226 leukemia = tested on: RPMI-8226 leukemia
LXFL 529 NSCLC = tested on: LXFL 529 NSCLC
CAKI-1 renal = tested on: CAKI-1 renal
OVCAR-3 ovarian = tested on: OVCAR-3 ovarian
OVCAR-4 ovarian = tested on: OVCAR-4 ovarian
HCT-15 colon = tested on: HCT-15 colon
SF-539 CNS = tested on: SF-539 CNS
SNB-75 CNS = tested on: SNB-75 CNS

Structure (SMILES): NCC(=O)NC(CCCC(NC(=O)CN)P(=O)(O)O)P(=O)(O)O (stereo not drawn)
- TGI (ACHN renal): > 100 µM
- TGI (SF-295 CNS): > 100 µM
- TGI (HT29 colon): > 100 µM
- TGI (UACC-257 melanoma): > 100 µM
- TGI (KM12 colon): > 100 µM
- TGI (A498 renal): > 100 µM
- TGI (HCT-116 colon): > 100 µM
- TGI (DMS 114 small cell lung): > 100 µM
- TGI (SNB-78 CNS): > 100 µM
- TGI (NCI-H226 lung): > 100 µM
- TGI (MOLT-4 leukemia): > 100 µM
- TGI (U251 CNS): > 100 µM
- TGI (NCI-H460 lung): > 100 µM
- TGI (HL-60(TB) leukemia): > 100 µM
- TGI (NCI-H23 lung): > 100 µM
- TGI (TK-10 renal): > 100 µM
- TGI (IGROV1 ovarian): > 100 µM
- TGI (CCRF-CEM leukemia): > 100 µM
- TGI (SK-OV-3 ovarian): > 100 µM
- TGI (SK-MEL-28 melanoma): > 100 µM
- TGI (M14 melanoma): > 100 µM
- TGI (RXF 393 renal): > 100 µM
- TGI (EKVX NSCLC): > 100 µM
- TGI (SR leukemia): > 100 µM
- TGI (NCI-H522 lung): > 100 µM
- TGI (DMS 273 small cell lung): > 100 µM
- TGI (RXF-631 renal): > 100 µM
- TGI (OVCAR-5 ovarian): > 100 µM
- TGI (M19-MEL melanoma): > 100 µM
- TGI (HOP-62 NSCLC): > 100 µM
- TGI (OVCAR-8 ovarian): > 100 µM
- TGI (KM20L2 colon): > 100 µM
- TGI (HOP-92 NSCLC): > 100 µM
- TGI (A549 NSCLC): > 100 µM
- TGI (UACC-62 melanoma): > 100 µM

Structure (SMILES): Cc1cccc(N2C(=O)C(Cl)=C(Cl)C2=O)c1
- TGI (DLD-1 colon): > 60.7 µM
- TGI (ACHN renal): > 74.6 µM
- TGI (SNB-19 CNS): > 100 µM
- TGI (SF-295 CNS): > 100 µM
- TGI (HT29 colon): > 100 µM
- TGI (COLO 205 colon): > 100 µM
- TGI (UACC-257 melanoma): > 100 µM
- TGI (KM12 colon): > 100 µM
- TGI (A498 renal): > 100 µM
- TGI (SW-620 colon): > 60.7 µM
- TGI (HCT-116 colon): > 100 µM
- TGI (K-562 leukemia): > 83.2 µM
- TGI (DMS 114 small cell lung): > 100 µM
- TGI (SNB-78 CNS): > 100 µM
- TGI (NCI-H226 lung): > 100 µM
- TGI (SF-268 CNS): > 100 µM
- TGI (LOX IMVI melanoma): > 100 µM
- TGI (MOLT-4 leukemia): > 75.8 µM
- TGI (SK-MEL-5 melanoma): > 100 µM
- TGI (SN12C renal): > 100 µM
- TGI (U251 CNS): > 100 µM
- TGI (HOP-18 NSCLC): > 100 µM
- TGI (NCI-H460 lung): > 100 µM
- TGI (HL-60(TB) leukemia): > 100 µM
- TGI (NCI-H23 lung): > 100 µM
- TGI (TK-10 renal): > 100 µM
- TGI (IGROV1 ovarian): > 100 µM
- TGI (786-0 renal): > 87.5 µM
- TGI (CCRF-CEM leukemia): > 61 µM
- TGI (SK-OV-3 ovarian): > 100 µM
- TGI (SK-MEL-28 melanoma): > 100 µM
- TGI (M14 melanoma): > 100 µM
- TGI (RXF 393 renal): 30.7 µM
- TGI (HCC-2998 colon): > 100 µM
- TGI (EKVX NSCLC): > 100 µM
- TGI (SK-MEL-2 melanoma): > 100 µM
- TGI (UO-31 renal): > 100 µM
- TGI (SR leukemia): 79.7 µM
- TGI (MALME-3M melanoma): > 59.4 µM
- TGI (NCI-H522 lung): 22.7 µM
- TGI (DMS 273 small cell lung): > 100 µM
- TGI (XF 498 CNS): > 100 µM
- TGI (RPMI-8226 leukemia): > 78.9 µM
- TGI (OVCAR-5 ovarian): > 100 µM
- TGI (LXFL 529 NSCLC): > 56.3 µM
- TGI (M19-MEL melanoma): > 100 µM
- TGI (HOP-62 NSCLC): > 100 µM
- TGI (OVCAR-8 ovarian): > 100 µM
- TGI (CAKI-1 renal): > 56.9 µM
- TGI (KM20L2 colon): > 100 µM
- TGI (OVCAR-3 ovarian): > 80.5 µM
- TGI (HOP-92 NSCLC): > 78.6 µM
- TGI (OVCAR-4 ovarian): > 71.7 µM
- TGI (A549 NSCLC): > 100 µM
- TGI (HCT-15 colon): > 58.4 µM
- TGI (SF-539 CNS): > 100 µM
- TGI (SNB-75 CNS): > 100 µM
- TGI (UACC-62 melanoma): > 100 µM
